Data as given in patent US20250066722A1, “METHODS FOR PRODUCTION OF FUNCTIONAL NEURONS” (AXENT BIOSCIENCES INC., priority 2021, published 2025).

Test system: Human induced pluripotent stem cells (hPSCs)
Experiment: 3D dopaminergic neuron differentiation of hPSCs with tyrosine hydroxylase immunocytochemistry
Assay type: cell-based
Conditions: for expression of tyrosine hydroxylase in differentiating aggregates: by day 20, immunocytochemistry, FGF8, TGF-β, BDNF, GDNF removed and replaced with BT-13 or Q525, FIGS. 3 and 5; for production of hPSC-derived neurons expressing the functional biomarker Tyrosine Hydroxylase: replacement of GDNF, BDNF and TGF-β in maturation media from Day 11, BT-13 5 μM or Q525 5 nM, with DAPT 10 uM, 3D AXgel
Experimental: Human Pluripotent Stem Cell Culture. Human […] (hPSCs) (ThermoFisher A 18945) were subcultured in monolayer format on a layer of 1% Matrigel and maintained in Essential 8 medium during expansion. At 80% confluency, H9s were passaged using Versene solution and replated at a 1:8 split.
3D hPSC Culture Seeding. hPSCs were dissociated into single cells using Accutase solution and resuspended in Essential 8 (E8) medium containing 10 μM Y-27632 (Rock Inhibitor, RI). hPSCs were counted and resuspended at defined densities in 11% AXgel on ice. Cells suspended in AXgel were dispensed into a multi-well tissue culture plate and heated to 37° C. for 15 minutes and afterward pre-warmed E8 medium containing 10 μM RI was added to each well. 3D cell suspensions remained in E8 with RI for 2 days (from Day −2 to Day 0).
3D Dopaminergic Neuron Differentiation. Starting Day 0, hPSCs in AXgel were transitioned to differentiation media to induce neural lineage commitment and subsequently specification into midbrain dopaminergic neurons. Starting Day 11, neural precursors were transitioned to maturation media containing GDNF agonist BT-13 (5 μM) or Q525 (5 nM) in place of proteins GDNF, BDNF, and TGF-β. Media formulations were according to Table 2: […]
Immunocytochemistry. At the endpoint of the experiment, cell aggregates were harvested from AXgel by replacing warm media with chilled media and plated on 8-chamber culture slides coated with 10 μg/mL laminin and cultured overnight in the incubator to allow aggregates to adhere to the surface. Aggregates attached to the culture slide were then fixed using 4% paraformaldehyde (PFA) for 15 minutes. Aggregates were washed twice in PBS for 5 minutes each and incubated in 0.25% Triton-X+5% donkey serum in PBS for 10 minutes to permeabilize cells. After permeabilization, aggregates were washed 5 times in 5% donkey serum for 5 minutes each and incubated with primary antibodies of interest diluted in PBS+donkey serum (dilution details in Table 3), and stored overnight at 4° C. After primary staining, aggregates were washed twice in PBS for 5 minutes each and incubated in solution containing the corresponding secondary antibodies (dilution details in Table 3), and incubated at 37° C. for 2 hours. After secondary staining, aggregates were washed twice in PBS for 5 minutes each and culture slides were mounted with a cover slip to be imaged.
Microscopy. Live cell aggregates suspended in AXgel were periodically imaged during the experiment using an EVOS XL Core Imaging System for transmitted light microscopy available in the Cell and Tissue Analysis Facility through QB3-Berkeley. Fixed, stained, and mounted cell aggregates were imaged with a 20× or 40× objective using a Perkin Elmer Opera Phenix automated confocal fluorescence microscope available in the High-Throughput Screening Facility through QB3-Berkeley. Laser exposure time and power was kept constant for a fluorescence channel within an imaging set.

CCN(CC)S(=O)(=O)c1ccc(OC)c(N2CCN(C(=O)c3ccc(F)cc3C(F)(F)F)CC2)c1 [BT-13, N,N-diethyl-3-[4-[4-fluoro-2-(trifluoromethyl)-benzoyl]piperazin-1-yl]-4-methoxybenzenesulfonamide]
expression of tyrosine hydroxylase in differentiating aggregates: detected in neuronal cell bodies within all of the differentiating aggregates
production of hPSC-derived neurons expressing the functional biomarker Tyrosine Hydroxylase: sufficient to produce hPSC-derived neurons expressing the functional biomarker Tyrosine Hydroxylase

O=C1C(Nc2ccc(CO)cc2)=C(O)C(=O)c2ncccc21 [Q525]
expression of tyrosine hydroxylase in differentiating aggregates: detected in neuronal cell bodies within all of the differentiating aggregates
tyrosine hydroxylase-positive neurons (FIG. 5) (day 18, 10 nM Q525 in differentiation media free of GDNF, BDNF and TGFβ3, induction media without FGF8): tyrosine hydroxylase-positive neurons at day 18
production of hPSC-derived neurons expressing the functional biomarker Tyrosine Hydroxylase: sufficient to produce hPSC-derived neurons expressing the functional biomarker Tyrosine Hydroxylase
